Test results taken from patent US6576620B2, “Method of identifying partial adenosine A1 receptor agonists” (CV Therapeutics, Inc., priority 1999, dated 2003).

Test system: Adenosine A1 receptor
Experiment: A1-agonist stimulated [35S]GTPγS binding to G proteins
Assay type: biochemical
Settings: normalized to the full agonist CPA
Protocol: At the end of the incubation, each suspension was filtered and the retained radioactivity determined as described above.

[1] = Table 1, compounds of Example 2
[2] = Table 3, compounds of Example 4

Compound	GTPγS [1]	further results
CCOC(=O)[C@H]1C2C=CC(C2)[C@H]1NC(=O)OC[C@H]1O[C@@H](n2cnc3c(N[C@@H]4CCOC4)ncnc32)[C@H](O)[C@@H]1O (stereo partly shown) [Compound 35 of Example 2]	52%	–
O=C(N[C@H]1CCC[C@@H]1OCc1ccccc1)OC[C@H]1O[C@@H](n2cnc3c(N[C@@H]4CCOC4)ncnc32)[C@H](O)[C@@H]1O [Compound 38 of Example 2, {(5-{6[((3R)oxolan-3-yl)amino]purin-9-yl}(3S,2R,4R,5R)-3,4-dihydroxyoxolan-2-yl)methoxy]-N-[(1 S,2S)-2-(phenylmethoxy)cyclopentyl]carboxamide]	1%	–
CC(C)NC(=O)OC[C@H]1O[C@@H](n2cnc3c(N[C@@H]4CCOC4)ncnc32)[C@H](O)[C@@H]1O [Compound 32 of Example 2, {(5-{6-[((3R)oxolan-3-yl)amino]purin-9-yl}(3S,2R,4R,5R)-3,4-dihydroxyoxolan-2-yl)methoxy]-N-(methylethyl)carboxamide]	91%	–
Cc1ccc(SC[C@H]2O[C@@H](n3cnc4c(N[C@@H]5CCOC5)ncnc43)[C@H](O)[C@@H]2O)cc1 [Compound 15 of Example 4, 2-{6-[((3R)oxolan-3-yl)amino]purin-9-yl}(4S,5S,2R,3R)-5-[(4-methylphenylthio)methyl]oxolane-3,4-diol]	–	GTPγS [2]: 48%
COC(=O)C1CCCC1NC(=O)OC[C@H]1O[C@@H](n2cnc3c(N[C@@H]4CCOC4)ncnc32)[C@H](O)[C@@H]1O (stereo partly shown) [Compound 34 of Example 2]	17%	–
COc1ccccc1SC[C@H]1O[C@@H](n2cnc3c(N[C@@H]4CCOC4)ncnc32)[C@H](O)[C@@H]1O [Compound 17 of Example 4, 2-{6-[((3R)oxolan-3-yl)amino]purin-9-yl}(4S,5S,2R,3R)-5-[(2-Methoxyphenylthio)methyl]oxolane-3,4-diol]	–	GTPγS [2]: 52%
CCNc1nc2c(N[C@@H]3CCOC3)ncnc2n1[C@@H]1O[C@H](CO)[C@@H](O)[C@H]1O [Compound 5 of Example 3, 2-{6-[((3R)oxolan-3-yl)amino]-8-(ethylamino)purin-9-yl}(4S,2R,3R,5R)-5-(hydroxymethyl)oxolane-3,4-diol]	–	GTPγS (Table 2, compounds of Example 3): 89%
N-[(5-{6-[((3R)oxolan-3-yl)amino]purin-9-yl}(3S,2R,4R,5R)-3,4-dihydroxyoxolan-2-yl)methy]cyclopentyloxycarboxamide [Compound 70 of Example 2]	76%	–
O=C(N[C@@H]1CCC[C@H]1OCc1ccccc1)OC[C@H]1O[C@@H](n2cnc3c(N[C@@H]4CCOC4)ncnc32)[C@H](O)[C@@H]1O [Compound 37 of Example 2, {(5-{6 [((3R)oxolan-3-yl)amino]purin-9-yl}(3S,2R,4R,5R)-3,4-dihydroxyoxolan-2-yl)methoxy]-N-[(1R,2R)-2-(phenylmethoxy)cyclopentyl]carboxamide]	30%	–
CCOC(=O)CCNC(=O)OC[C@H]1O[C@@H](n2cnc3c(N[C@@H]4CCOC4)ncnc32)[C@H](O)[C@@H]1O [Compound 42 of Example 2, Ethyl 3-{[(5-{6-[((3R)oxolan-3-yl)amino]purin-9-yl}(3S, 2R,4R,5R)-3,4-dihydroxyoxolane-2-yl)methoxy}carbonylamino}propanoate]	47%	–
CCCCNC(=S)OC[C@H]1O[C@@H](n2cnc3c(N[C@@H]4CCOC4)ncnc32)[C@H](O)[C@@H]1O [Compound 48 of Example 2, 2-{6-[((3R)oxolan-3-yl)amino]purin-9-yl}(4S,2R,3R,5R)-5-{[(butylamino)thioxomethoxy]methyl}oxolane-3,4-diol]	70%	–
O=C(NC1CC1c1ccccc1)OC[C@H]1O[C@@H](n2cnc3c(N[C@@H]4CCOC4)ncnc32)[C@H](O)[C@@H]1O (stereo partly shown) [Compound 40 of Example 2]	−6%	–
2-{6-[((3R)oxolan-3-yl)amino]purin-9-yl}(4S,2R,3R,5R)-5-{[cyclopentyloxythioxomethyl)amino]methyl}oxolane-3,4-diol [Compound 72 of Example 2]	93%	–
CCOC(=O)[C@H]1C2CCC(C2)[C@H]1NC(=O)OC[C@H]1O[C@@H](n2cnc3c(N[C@@H]4CCOC4)ncnc32)[C@H](O)[C@@H]1O (stereo partly shown) [Compound 36 of Example 2]	41%	–

Further lines, with some results ahead:

GTPγS [1]	Compound	further results
79%	O[C@@H]1[C@H](O)[C@@H](COC(=S)NC2CCC2)O[C@H]1n1cnc2c(NC3CCOC3)ncnc21 (stereo partly drawn) [Compound 58 of Example 2, 2-{6-[((3)oxolan-3-yl)amino]purin-9-yl}(4S,2R,3R,5R)-5{[(cyclobutylamino)thioxomethoxy]methyl}oxolane-3,4-diol]	–
85%	CN(C)C(=S)OC[C@H]1O[C@@H](n2cnc3c(N[C@@H]4CCOC4)ncnc32)[C@H](O)[C@@H]1O [Compound 53 of Example 2, 2-{6-[((3R)oxolan-3-yl)amino]purin-9-yl}(4S,2R,3R,5R)-5-{[(dimethylamino)thioxomethoxy]methyl}oxolane-3,4-diol]	–
81%	O=C(NC1CCCC1C(=O)O)OC[C@H]1O[C@@H](n2cnc3c(N[C@@H]4CCOC4)ncnc32)[C@H](O)[C@@H]1O (stereo partly shown) [Compound 65 of Example 2]	–
100%	O[C@@H]1[C@H](O)[C@@H](COC(=S)N[C@@H]2CCC[C@H]2O)O[C@H]1n1cnc2c(N[C@@H]3CCOC3)ncnc21 [Compound 63 of Example 2, 2-{6-[((3R)oxolan-3-yl)amino]purin-9-yl}(4S,2R,3R,5R)-5-({[((1R,2R)-2-hydroxycyclopentyl)amino]thioxomethoxy}methyl)oxolane-3,4-diol]	–
99%	O[C@@H]1[C@H](O)[C@@H](COC(=S)N[C@H]2CCC[C@@H]2O)O[C@H]1n1cnc2c(N[C@@H]3CCOC3)ncnc21 [Compound 64 of Example 2, 2-{6-[((3R)oxolan-3-yl)amino]purin-9-yl}(4S,2R,3R,5R)-5-({[((1S,2S)-2-hydroxycyclopentyl)amino]thioxomethoxy}methyl)oxolane-3,4-diol]	–
67%	O[C@@H]1[C@H](O)[C@@H](COC(=S)N[C@@H]2CCC[C@H]2OCc2ccccc2)O[C@H]1n1cnc2c(N[C@@H]3CCOC3)ncnc21 [Compound 57 of Example 2, 2-{6-[((3R)oxolan-3-yl)amino]purin-9-yl}(4S,2R,3R,5R)-5-[(([(1R,2R)-2-(phenylmethoxy)cyclopentyl]amino}thioxomethoxy)methyl]oxolane-3,4-diol]	–
77%	O[C@@H]1[C@H](O)[C@@H](COC(=S)N2CCCC2)O[C@H]1n1cnc2c(N[C@@H]3CCOC3)ncnc21 [Compound 52 of Example 2, 2-{6-[((3R)oxolan-3-yl)amino]purin-9-yl}(4S,2R,3R,5R)-5-[(pyrrolidinylthioxomethoxy)methyl]oxolane-3,4-diol]	–
82%	O[C@@H]1[C@H](O)[C@@H](COC(=S)NC2CC2)O[C@H]1n1cnc2c(N[C@@H]3CCOC3)ncnc21 [Compound 59 of Example 2, 2-{6-[((3R)oxolan-3-yl)amino]purin-9-yl}(4S,2R,3R,5R)-5-{[(cyclopropylamino)thioxomethoxy]methyl}oxolane-3,4-diol]	–
82%	O[C@@H]1[C@H](O)[C@@H](COC(=S)NC2CCCCC2)O[C@H]1n1cnc2c(N[C@@H]3CCOC3)ncnc21 [Compound 55 of Example 2, 2-{6-[((3R)oxolan-3-yl)amino]purin-9-yl}(4S,2R,3R,5R)-5-({[cyclohexylamino]thioxomethoxy}methyl)oxolane-3,4-diol]	–
101%	CNC(=S)NC[C@H]1O[C@@H](n2cnc3c(N[C@@H]4CCOC4)ncnc32)[C@H](O)[C@@H]1O [Compound 77 of Example 2, 2-{6-[((3R)oxolan-3-yl)amino]purin-9-yl}(4S,2R,3R,5R)-5-({[(methylamino)thioxomethyl]amino}methyl)oxolane-3,4-diol]	–
59%	O=C(N[C@H]1CCC[C@@H]1O)OC[C@H]1O[C@@H](n2cnc3c(N[C@@H]4CCOC4)ncnc32)[C@H](O)[C@@H]1O [Compound 61 of Example 2]	–
59%	O=C(O)CCNC(=O)OC[C@H]1O[C@@H](n2cnc3c(N[C@@H]4CCOC4)ncnc32)[C@H](O)[C@@H]1O [Compound 67 of Example 2, 3-{[(5-{6-[((3R)oxolan-3-yl)amino]purin-9-yl}(3S,2R,4R,5R)-3,4 dihydroxyoxolan-2-yl)methoxy]carbonylamino}propanoic acid]	–
93%	O[C@@H]1[C@H](O)[C@@H](COC(=S)NCc2ccccc2)O[C@H]1n1cnc2c(N[C@@H]3CCOC3)ncnc21 [Compound 54 of Example 2, 2-{6-[((3R)oxolan-3-yl)amino]purin-9-yl}(4S,2R,3R,5R)-5-({[benzylamino]thioxomethoxy}methyl)oxolane-3,4-diol]	–
53%	COC(=O)CNC(=O)OC[C@H]1O[C@@H](n2cnc3c(N[C@@H]4CCOC4)ncnc32)[C@H](O)[C@@H]1O [Compound 43 of Example 2, Methyl 2-{[(5-{6-[((3R)oxolan-3-yl)amino]purin-9-yl}(3S, 2R,4R,5R)dihydroxyoxolane-2-yl)methoxy}carbonylamino}acetate]	–
80%	O=c1occn1C[C@H]1OC(n2cnc3c(N[C@@H]4CCOC4)ncnc32)[C@H](O)[C@@H]1O (stereo partly drawn) [Compound 80 of Example 2, 3-[(5-{6-[((3R)oxolan-3-yl)amino]purin-9-yl}(3S,2R,4R)-3,4-dihydroxyoxolan-2-yl)methyl]-1,3-oxazolin-2-one]	–
76%	O=C(O)CNC(=O)OC[C@H]1O[C@@H](n2cnc3c(N[C@@H]4CCOC4)ncnc32)[C@H](O)[C@@H]1O [Compound 68 of Example 2, 2-{[(5-{6-[((3R)oxolan-3-yl)amino]purin-9-yl}(3S,2R,4R,5R)-3,4 dihydroxyoxolan-2-yl)methoxy]carbonylamino}acetic acid]	–
42%	O=C(N[C@@H]1CCC[C@H]1O)OC[C@H]1O[C@@H](n2cnc3c(N[C@@H]4CCOC4)ncnc32)[C@H](O)[C@@H]1O [Compound 62 of Example 2, {(5-{6[((3R)oxolan-3-yl)amino]purin-9-yl}(3S,2R,4R,5R)-3,4-dihydroxyoxolan-2-yl)methoxy]-N-((1R,2R)-2-hydroxycyclopentyl)carboxamide]	–
